The source of these data is publication PMC4853610, “Systemic Dosing of Thymosin Beta 4 before and after Ischemia Does Not Attenuate Global Myocardial Ischemia-Reperfusion Injury in Pigs” (Frontiers in Pharmacology, 2016).

One data set has as its system small mesentery arteries. Kind of data set: Artery wire myography, small mesentery arteries. Further details: species or system pig. The text has this: (§1) Eighteen representative segments of small mesentery arteries and coronary arteries (250–350 μm in diameter) from 4 blood-donor pigs were studied by wire myography for contractile responses to TB4 in vitro. Samples were excised rapidly and placed in ice-cold oxygenated Krebs solution. The composition of the Krebs solution was as follows (in mM): 119 NaCl, 4.7 KCl, 25 NaHCO3, 1.2 NaH2PO4, 2.5 CaCl2, 1.2 MgSO4, and 5.5 glucose. Arterial rings (2 mm in length) were mounted using 40 μm wires in a microvessel myograph (Danish Myograph Technologies, Aarhus, Denmark) for isometric tension recordings. After mounting, vessels were equilibrated, normalized and contracted repeatedly with 62 mM potassium chloride until maximal and reproducible contractions were obtained. To examine the contracting effects of TB4, dose-response curves to TB4 (10-8-10-2 M) were constructed and compared to KCl-induced contraction. Relaxation was studied in thromboxane (TXA2) precontracted arterial rings. The precontraction was adjusted to 20–40% of the reference contraction to 62 mM KCl, which after cumulative concentrations of TB4 was added to the organ bath. To evaluate the role of NO on the effects of TB4 induced vasodilation, experiments were repeated in arteries incubated with L-NNA, a NO synthase inhibitor (100 μM, 30 min). Data were collected and analyzed using Powerlab and Chart5 softwares (ADI Instruments, Colorado Springs, CO, USA).

A further data set relates to coronary arteries. Description: Artery wire myography, coronary arteries. Set-up: species or system pig.
Excerpt: as §1

The next data set has as its system citrated whole blood. Kind of data set: Rotem thromboelastometry in vitro (EXTEM, INTEM, FIBTEM). Further details: species or system pig. As to conditions: for maximum clot firmness, FIBTEM: 1 h room temperature, platelets inhibited, three animals, mean ± SD. The method, then:
Rotem®thromboelastometry (Tem Innovations GmbH, Basel, Switzerland) analysis was performed in vitro on blood samples from three blood-donor animals. TB4 was added to citrated whole blood to achieve two different concentrations (0.1 mM and 1 mM) and incubated at room temperature for 1 h. Untreated blood samples served as controls. The samples were analyzed and three parameters were drawn from the results at 60 min: Maximum clot firmness (stability of the blood clot), clotting time (time to clot formation), and maximum lysis of the blood clot. Assays used were EXTEM, INTEM, and FIBTEM. EXTEM measures the activity of the extrinsic pathway with tissue factor activation and INTEM of the intrinsic pathway with contact activation. FIBTEM is used for the assessment of fibrinogen status by complete platelet inhibition.

Data set [1] relates to global myocardial ischemia-reperfusion injury. Kind of data set: Cardiomyocyte apoptosis by TUNEL after CPB and aortic cross-clamping. Type of data set: in vivo. The note with it: pig; TB4 6 mg/kg i.v. twice; 30 h post-reperfusion; mean ± SD; p = 0.20 vs other group. The method, then:
(§2) The lung was displaced and the pericardium opened. […] Blood lactate levels were monitored to ensure adequate perfusion. […] After weaning, the animals were decannulated. […] The thoracotomy wound was closed in three layers.
Transmural tissue samples from the left and right ventricles were collected and fixed in formalin. Hematoxylin and eosin staining was performed for general histological analysis. Cardiomyocyte apoptosis was determined by terminal transferase nick end-labeling assay (TUNEL) as previously described ([Gavrieli et al., 1992]; [Saraste et al., 1997]). Positive apoptotic nuclei were counted over an ocular grid and presented as a percentage of total cardiomyocyte number in 10 randomly selected microscopic visual high power (×40) fields by an investigator blinded to group assignments.

Data set [2] has the same test system. Description: Cardiac 15O-water PET, myocardial blood flow. It is filed as in vivo. As to conditions: pig; 25 h post-reperfusion; n = 4; mean ± SD; p = 0.86 vs control. The method, then: as §2
The pigs underwent cardiac PET scans 25–26 h post-reperfusion to determine MBF during rest and adenosine stress. PET studies were performed with ECAT EXACT HR+ scanner (Siemens-CTI, Knoxville, TN, USA). Myocardial perfusion was evaluated by PET with ^15O-radiolabeled water (808 ± 129 MBq) both at rest and during intravenous adenosine stress (200 μg/kg/min). The acquisition frames were as follows: 14 × 5 s, 3 × 10 s, 3 × 20 s, and 4 × 30 s (total duration 4 min 40 s). The acquired PET data were reconstructed in 2D mode with an iterative reconstruction algorithm OSEM using six iteration and 16 subsets in the reconstruction. The transaxial field of view (35 cm) was reconstructed in a 128 × 128 matrix, yielding a pixel size of 2.57 mm × 2.57 mm. The measurements were corrected for scatter, random counts, and dead time. The device produces 63 axial planes with a slice thickness of 2.43 mm. Global myocardial perfusion (ml/g/min) was measured using Carimas 2 software (Turku PET Centre, Turku, Finland^1).

Data set [3] shares this test system. It is filed as in vivo, pig. As for the experimental part: The lung was displaced and the pericardium opened. […] Blood lactate levels were monitored to ensure adequate perfusion. […] After weaning, the animals were decannulated. […] The thoracotomy wound was closed in three layers. […] MRI study was performed at 1.5 T system (Philips GyroscanIntera Nova Dual MR, Philips Medical Systems, Best, The Netherlands) with a phased-array torso coil and a vector cardiographic method for ECG-gating. All acquisitions were obtained during short breath hold periods. Each MRI study consisted of cine imaging of both ventricles for volumetrics and wall motion at rest. Late enhancement (LE) imaging was applied for scar assessment. […] A phase-sensitive inversion recovery T1-TFE pulse sequence was applied for LE imaging 10 min after injecting gadoterate meglumine (Dotarem 279.3 mg/mL, Guerbet, Roissy CdG, France) with a dose 0.3 mmol/kg. The following imaging parameters were used: prospective gating, TR/TE 4.0/1.2 ms, flip angle 15°, acquisition matrix 168 × 256, reconstruction matrix 256 × 256, FOV 320-360 mm, rFOV 100%, 8-15 slices/breath hold, slice thickness 6 mm, and gap 0 mm. TI was optimized individually using a TI-scout sequence. The whole LV was covered by LE images at SA orientation.

The nature of data set [4]: Completion of the 30 h follow-up period. It is filed as in vivo, pig. As to conditions: TB4 treatment group n = 6; one died after weaning from CPB (bradycardia), one 20 h after reperfusion (circulatory failure).
Excerpt: Ten landrace pigs weighing 29–43 kg were operated on and divided into a TB4 treatment group (n = 6) and a control group (n = 4). All animal experiments were approved by the Laboratory Animal Care & Use Committee of the State Provincial Office of Southern Finland.
as §2

Data set [5] relates to global myocardial ischemia-reperfusion injury. The note with it: pig, TB4 6 mg/kg i.v. twice, n = 4, mean ± SD.
Procedure: The pigs were pre-anesthetized with an intramuscular injection of 100 mg xylazin (Rompun vet, Bayer Animal Health GmbH, Leverkusen, Germany) and 25 mg midazolam (Midazolam Hameln, Hameln pharmaceuticals GmbH, Hameln, Germany). A peripheral ear vein was cannulated and the animals were medicated with 20 mg boluses of propofol (PropofolLipuro, B. Braun Melsungen AG, Melsungen, Germany) and 150 μg phentanyl (Fentanyl-Hameln, Hameln pharmaceuticals GmbH, Hameln, Germany) and were then intubated and connected to a respirator (Dräger Oxylog 3000, Drägerwerk AG, Lübeck, Germany). The respiratory rate was set to 18–22 times/min with a tidal volume of 8–10 ml/kg using 40% oxygen. Blood gases were monitored to ensure adequate ventilation (i-STAT, Abbott Laboratories, Abbott Park, IL, USA). Anesthesia was maintained with a continuous infusion of propofol 15–30 mg/kg/h, phentanyl 1.5 μg/kg/h and midazolam 100 μg/kg/h. Preoperatively and every 8 h thereafter the animals received antibiotic prophylaxis (Cefuroxime 750 mg, Orion Pharma, Espoo, Finland). Before the heart was cannulated 10000 IU of heparin (Heparin, LEO Pharma, Ballerup, Denmark) was given as a bolus and the dose was repeated every 30 min during extracorporeal circulation. […]
The pigs were placed in a left lateral decubitus position and the chest was shaved and disinfected. […] Blood lactate levels were monitored to ensure adequate perfusion. […]
The conditions of data set [6]: after intraperitoneal administration; ref Mora et al., 1997; cited from earlier work. The method, then:
The preferred dosing range of TB4 seems to be 2–12 mg/kg both when using single and repeated strategies. […] We wanted to condition the heart before the operation and also affect the immediate post-operative reperfusion period and gave the animals two doses of TB4. Under physiological conditions, concentrations of the peptide in plasma and se ...

The conditions of data set [7]: statement in discussion; ref Cierniewski et al., 2012; cited from earlier work. The source says: Thymosin beta 4 is normally found in the cytosol and also in the nucleus of cells but lacks a signal sequence for exocytosis. It is unclear whether the high concentrations found in extracellular fluids, is due to active secretion of the peptide or secondary to degranulation of inflammatory cells or cell membrane rupture ([Watts et al., 1990]; [Huff et al., 2001]). TB4 is water soluble and rapidly internalized by endothelial cells in vitro where it binds to actin and participates in the dynamics of the cytoskeleton ([Cierniewski et al., 2012]). At very high concentrations there is also some bin ...

Data set [8] is described as follows: Serum TB4 concentration by EIA after intravenous infusion. As to conditions: pig, 6 mg/kg.
Procedure: The pigs were pre-anesthetized with an intramuscular injection of 100 mg xylazin (Rompun vet, Bayer Animal Health GmbH, Leverkusen, Germany) and 25 mg midazolam (Midazolam Hameln, Hameln pharmaceuticals GmbH, Hameln, Germany). A peripheral ear vein was cannulated and the animals were medicated with 20 mg boluses of propofol (PropofolLipuro, B. Braun Melsungen AG, Melsungen, Germany) and 150 μg phentanyl (Fentanyl-Hameln, Hameln pharmaceuticals GmbH, Hameln, Germany) and were then intubated and connected to a respirator (Dräger Oxylog 3000, Drägerwerk AG, Lübeck, Germany). […] Anesthesia was maintained with a continuous infusion of propofol 15–30 mg/kg/h, phentanyl 1.5 μg/kg/h and midazolam 100 μg/kg/h. […] TB4 (supplied by RegeneRx Biopharmaceuticals Inc, Rockville, MD, USA) was suspended in sterile water to a concentration of 4 mg/ml (0.82 mM) and administered 6 mg/kg through a 15 min intravenous infusion 30 min before the start of the operation and 6 h later.
Serial serum samples were collected from two animals in both groups for pharmacokinetic studies of TB4 by EIA. The serum was prepared and analyzed as parallel samples according to the manufacturers’ manual (Thymosin β4 EIA Kit, Immundiagnostik AG, Bensheim, Germany). A coefficient of variation (calculated as: sample SD/sample mean) of less than 50% between parallel samples was accepted for final analysis.
[9] abbreviates: TB4 0.1 mM and 1 mM in whole blood.

`CC[C@H](C)[C@H](NC(=O)[C@H](CCC(=O)O)NC(=O)[C@H](C)NC(=O)[C@H](CCSC)NC(=O)[C@H](CC(=O)O)NC(=O)[C@@H]1CCCN1C(=O)[C@H](CCCCN)NC(=O)[C@H](CC(=O)O)NC(=O)[C@H](CO)NC(C)=O)C(=O)N[C@@H](CCC(=O)O)C(=O)N[C@@H](CCCCN)C(=O)N[C@@H](Cc1ccccc1)C(=O)N[C@@H](CC(=O)O)C(=O)N[C@@H](CCCCN)C(=O)N[C@@H](CO)C(=O)N[C@@H](CCCCN)C(=O)N[C@@H](CC(C)C)C(=O)N[C@@H](CCCCN)C(=O)N[C@@H](CCCCN)C(=O)N[C@H](C(=O)N[C@@H](CCC(=O)O)C(=O)N[C@H](C(=O)N[C@@H](CCC(N)=O)C(=O)N[C@@H](CCC(=O)O)C(=O)N[C@@H](CCCCN)C(=O)N[C@@H](CC(N)=O)C(=O)N1CCC[C@H]1C(=O)N[C@@H](CC(C)C)C(=O)N1CCC[C@H]1C(=O)N[C@@H](CO)C(=O)N[C@@H](CCCCN)C(=O)N[C@@H](CCC(=O)O)C(=O)N[C@H](C(=O)N[C@H](C(=O)N[C@@H](CCC(=O)O)C(=O)N[C@@H](CCC(N)=O)C(=O)N[C@@H](CCC(=O)O)C(=O)N[C@@H](CCCCN)C(=O)N[C@@H](CCC(N)=O)C(=O)N[C@@H](C)C(=O)NCC(=O)N[C@@H](CCC(=O)O)C(=O)N[C@@H](CO)C(=O)O)[C@@H](C)CC)[C@@H](C)O)[C@@H](C)O)[C@@H](C)O` [TB4, Thymosin beta 4]: the “vasodilatation in mesenteric arteries” value in the data set on small mesentery arteries (TXA2 precontracted arterial rings, cumulative TB4 concentrations) is given as “did not, however, induce vasodilatation”. Further, the “contractile response, % of maximum potassium chloride stimulation” value in the data set on small mesentery arteries (mesenteric arteries, TB4 0.1–1 mM, reference 62 mM KCl, arteries from four animals) is recorded as 15–30%. Besides, the “influence on vasoconstriction or vasodilation at physiological concentrations” value with small mesentery arteries (physiological concentrations of TB4, mesentery and coronary arteries) was “did not observe any influence”. Moreover, in the data set with coronary arteries (TXA2 precontracted porcine coronary rings, TB4 alone), the “relaxation of coronary arteries” value was “modest endothelium-dependent relaxation”. Moreover, the “relaxation of coronary arteries with nitric oxide synthase inhibitor” value with coronary arteries (arteries incubated with L-NNA 100 μM, 30 min) is “abolished”. Further, in the data set on coronary arteries (dose-response to TB4 compared to KCl-induced contraction), the “vasoconstriction in coronary arteries” value is on record as “nor did it induce vasoconstriction”. Besides, in the data set with citrated whole blood (setting [9]), the blood clotting time result is “did not have an effect” and the “maximal blood clot fibrinolysis” value is given as “did not have an effect”. In the data set with citrated whole blood (TB4 0.1 mM in citrated whole blood), the “maximum clot firmness, FIBTEM” value is recorded as 37.3 ± 5.9 mm. For the same compound, the “maximum clot firmness, FIBTEM” value in the data set with citrated whole blood (TB4 1 mM in citrated whole blood) turned out to be 27.7 ± 4.2 mm. In [1], the “TUNEL-positive apoptotic cells, right ventricle” value was found to be 0.94 ± 0.33%. Besides, in data set [2], the “global myocardial blood flow during rest” value was determined as 1.92 ± 0.38 mL/g/min. Also, the “gadolinium contrast uptake on late-enhancement scans” value in data set [3] (28 h post-reperfusion, any of the animals) is given as “No uptake of gadolinium contrast was observed”. Also, in data set [3] (pig, in vivo), the “valvular abnormalities on cardiac MRI” value is “One animal in the TB4 group had mild tricuspid valve regurgitation”. In [3] (pig, 28 h post-reperfusion, n = 4, mean ± SD, p = 0.45 vs control), the “left ventricle ejection fraction” value is reported as 61.9 ± 10.6%. This compound also showed an LVESV in data set [3] (pig, 28 h post-reperfusion, n = 4, mean ± SD, p = 0.49) of 23.3 ± 8.7 mL. The compound further registered an LVEDV in data set [3] (pig, 28 h post-reperfusion, n = 4, mean ± SD, p = 0.58) of 60.1 ± 6.8 mL. The “animals not completing the follow-up period” value in [4] is “two animals did not complete the follow-up period”. For the same compound, in data set [5] (p = 0.27), the “cTnT plasma concentration 6 h post-reperfusion” value was 437 ± 291 ng/L. In addition, the “cTnT plasma concentration 24 h post-reperfusion” value in [5] (p = 0.55) is 305 ± 75 ng/L. Further, in data set [6], the “time of maximal tissue concentration in heart” value was 2 h. Moreover, the solubility in water result in data set [7] is “water soluble”. In addition, in data set [8], the level at time molar at 0.25 h amounted to 960 nM and the level at time molar at 1 h came to 1250 nM.
